In US8642784B2, “Biologically active compound N-[3-(4-nitrophenylamino)-indole-2-ilmethylene]aminoguanidine hydrochloride with anti-inflammatory activity” (priority 2010, dated 2014):
Where two headings read alike, the source gives them in different places. Marks after values point to notes of the source that are not given here.

What was measured:
[1] = test system: carrageenan-induced peritonitis in mice; assay: Carrageenan-induced peritonitis in mice, volume of exudate; assay type: in vivo
Description: Research was carried out by a method described in [5]. Experiments were performed using male mice with body mass 23-24 g, in groups of 10 animals. […] The results were processed using variation statistics methods for biological research (mean standard error, means were calculated using Student's t-distribution).

mice stomach [2] = assay: Aggravation of ulcerogenic effects by 0.6H hydrochloric acid; assay type: in vivo; settings: compound 2 100 mg/kg, indomethacin 20 mg/kg, voltaren 50 mg/kg, aminoguanidine 200 mg/kg, 1 hour before 0.6H HCl 5 ml/kg, after 4 hours
Description: (§1) Studies were performed according to the following scheme: • 1. […] Study of the compounds' ulcerogenic action using pharmaceutical dose during 7 days of administration. • 3. Aggravation of ulcerogenic effects of studied compounds by 0.6H hydrochloric acid. • 4. Aggravation of ulcerogenic effects of studied compounds by the known NSAIDs (indomethacin). 1.
(§2) Ulcerogenic effect was assessed using 4-point scale: 0—no damage; 0.5—hyperemia; 1—insignificant damage (1 or 2 small bleedings); 2—multiple damage (erosions, small bleedings); 3—significant and multiple damage (erosions, bleedings); 4—severe damage, affecting all gastric mucosa (massive bleedings, erosions, perforations).
(§3) Male mice with body mass 23-24 g were deprived of food for 24 hours, water access was not limited.
(§4) Drugs of comparison: indomethacin 20 mg/kg, voltaren—50 mg/kg and aminoguanidine—200 mg/kg. Each test group had 10 animals.

[3] = test system: constitutive forms of NO-synthase; settings: compared with L-NMMA; cited from earlier work
[4] = test system: LPS-induced peritonitis in rats; assay: LPS-induced peritonitis in rats, volume of exudate; assay type: in vivo; settings: rats; for ED50: LPS-induced peritonitis, per os
Description: (§5) Anti-exudative action was studied in male rate with body mass 170.0-180.0 g. Peritonitis was induced by intraperitoneal administration of lipopolysaccharide (LPS), produced from Escherichia coli (Sigma)—1.0 mg/kg as described in [6]: after 4 hours the animals were sacrificed by CO2, their peritoneal cavity opened and the volume of exudate was measured in ml. Studied compounds and drugs of comparison were administered per os one hour before LPS, control group was composed of rats receiving 0.3 ml of saline before LPS administration. Each group had 7 animals.
(§6) The results were processed using variation statistics methods for biological research (mean standard error, means were calculated using Student's t-distribution).

mice stomach [5] = assay type: in vivo; settings: for Average ulcerogenic index (4-point scale) of chronic administration of pharmacological dose: mice, per os 7 days, compound 2 200 mg/kg, indomethacin 20 mg/kg, voltaren 50 mg/kg, aminoguanidine 200 mg/kg; for Ulcerogenic effects of drugs of comparison: mice ulceration models, summary of table 4
Description: as §1, §2
After 7 days the animals were sacrificed by CO2, their stomachs extracted and the number of ulcers counted.
as §4

[6] = test system: LPS-induced peritonitis in mice; assay: LPS-induced peritonitis in mice, volume of exudate; assay type: in vivo
Description: Activity was studies using the methods listed in “Methodical recommendations on experimental (preclinical) research of new nonsteroidal anti-inflammatory drugs” for new compounds screening, in animal models of peritonitis induced by lipopolysaccharide (LPS) and carrageenan.
as §5, with “mice” for “rate”, “mice 22.0-23.0” for “mass 170.0-180.0”, “(Sigma) 1.0 mg/kg,” for “(Sigma)—1.0 mg/kg”, “mice” for “rats”, “10” for “7”
as §6

[7] = target: inducible isoenzymes of NO-synthase (Homo sapiens, UniProt P35228); settings: most in vitro systems; cited from earlier work
mice stomach [8] = assay: Aggravation of ulcerogenic effect by indomethacin; assay type: in vivo; settings: mice; compound 2 100 mg/kg, voltaren 50 mg/kg, aminoguanidine 200 mg/kg, 1 hour before indomethacin 20 mg/kg; after 5 hours
Description: as §1, §2, §3
Drugs of comparison: voltaren—50 mg/kg and aminoguanidine—200 mg/kg. Each test group had 10 animals.

animal models = settings: in vivo; cited from earlier work

Row | Compound | Anti-inflammatory activity in carrageenan-induced peritonitis model, % of control ([1]; 50.0 mg/kg per os) | Anti-inflammatory activity in carrageenan-induced peritonitis model, % of control ([1]; 100.0 mg/kg per os) | Average ulcerogenic index (4-point scale) of combining the studied compounds with hydrochloric acid (mice stomach [2]) | Anti-inflammatory activity in LPS-induced peritonitis model, % of control ([4]; 25.0 mg/kg per os) | Anti-inflammatory activity in LPS-induced peritonitis model, % of control ([4]; 50.0 mg/kg per os) | Anti-inflammatory activity in LPS-induced peritonitis model, % of control ([4]; 75.0 mg/kg per os) | Average ulcerogenic index (4-point scale) of chronic administration of pharmacological dose (mice stomach [5]) | Anti-inflammatory activity in LPS-induced peritonitis model, % of control ([6]; 50.0 mg/kg per os) | Anti-inflammatory activity in LPS-induced peritonitis model, % of control ([6]; 100.0 mg/kg per os) | Average ulcerogenic index (4-point scale) of combining the studied compounds with indomethacin (mice stomach [8]) | Ulcerogenic effects of drugs of comparison (mice stomach [5]) | also measured
1 | N=C(N)NN [Aminoguanidine, N-aminoguanidine] | 25.5* % of control | 70.6* % of control | 0.15 | 4.0 % of control | 22.0* % of control | 58.0* % of control | 0 | 51.1* % of control | 73.3* % of control | 0.19 |  | Anti-inflammatory activity in carrageenan-induced peritonitis model, % of control ([1]; 200.0 mg/kg per os): 84.3* % of control; Activity towards constitutive forms of NO-synthase [3]: much less active towards constitutive forms; Anti-inflammatory activity in LPS-induced peritonitis model, % of control ([4]; 100.0 mg/kg per os): 78.0* % of control; Anti-inflammatory activity in LPS-induced peritonitis model, % of control ([4]; 200.0 mg/kg per os): 100.0* % of control; ED50 [4]: 70.0 ± 2.5 mg/kg; Anti-inflammatory activity in LPS-induced peritonitis model, % of control ([6]; 200.0 mg/kg per os): 91.1* % of control; Inhibition of inducible isoenzymes of NO-synthase [7]: equally effective in inhibiting inducible isoenzymes; Effect in animal models of inflammation, septic shock, endotoxin (animal models): reduces the severity of inflammation and septic shock, improves survival during endotoxin administration
2 | COc1ccc2c(c1)c(CC(=O)O)c(C)n2C(=O)c1ccc(Cl)cc1 [Indomethacin, indomethacin] |  |  | 2.4 |  |  |  | 1.15 |  |  |  | had ulcerogenic effects | 
3 | O=C(O)Cc1ccccc1Nc1c(Cl)cccc1Cl [Voltaren, sodium diclofenac] | 90.2* % of control | 100.0* % of control | 0.55 | 65.0* % of control | 84.0* % of control | 100.0* % of control | 0.35 | 95.6* % of control | 100.0* % of control | 2.5 | had ulcerogenic effects | Anti-inflammatory activity in carrageenan-induced peritonitis model, % of control ([1]; 25.0 mg/kg per os): 80.4* % of control; ED50 ([4]; Rattus norvegicus, po, read-out: ED50): 20 ± 1.5 mg/kg; Anti-inflammatory activity in LPS-induced peritonitis model, % of control ([4]; 10.0 mg/kg per os): 22.0 % of control; Anti-inflammatory activity in LPS-induced peritonitis model, % of control ([6]; 25.0 mg/kg per os): 82.2* % of control
